Laboratory results from the supplement of paper PMC9265050, “Inhibition of RNA Binding in SND1 Increases the Levels of miR-1-3p and Sensitizes Cancer Cells to Navitoclax” (Cancers, 2022).

Test system: SW480
Assay: drug sensitivity score (DSS, integrated dose-response area); higher = more sensitive (stronger viability reduction); extreme values may be limits of the assay
Method in brief: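 SW480 cells stably carrying doxycycline-inducible control or SND1-targeting shRNA were treated with 0.1 µg/mL doxycycline for 7 days. Cells were then seeded at 1000 per well into 384-well plates containing 525 commercially available small-molecule inhibitors at five concentrations, and viability was measured with CellTiter-Glo after 72 h. The drug sensitivity score integrates the area under a fitted non-linear dose–response model.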

[1] = shRNA: SND1 shRNA1 (SND1 silenced)
[2] = shRNA: SND1 shRNA2 (SND1 silenced)
[3] = shRNA: control shRNA (non-targeting)

Row | Structure (SMILES) | drug sensitivity score [1] [DSS] | drug sensitivity score [2] [DSS] | drug sensitivity score [3] [DSS]
1 | CNC(=O)CN1CCC(Oc2cc3c(Nc4cccc(Cl)c4F)ncnc3cc2OC)CC1 [Sapitinib] | 0.1 | 5 | 0
2 | Cn1cc(-c2cnn3c(N)c(Br)c([C@@H]4CCCNC4)nc23)cn1 [MK-8776] | 0.9 | 0.1 | 2.2
3 | CCCCCCCCc1ccc(CCC(N)(CO)CO)cc1 [Fingolimod] | 8.5 | 8.9 | 6.6
4 | C[C@H](Nc1ncnc2nc[nH]c12)c1cc2cccc(Cl)c2c(=O)n1-c1ccccc1 [Duvelisib] | 0.6 | 3 | 5.5
5 | Cn1c(=O)c(F)c(Nc2ccc(I)cc2F)c2c(=O)n(C[C@@H](O)CO)cnc21 [TAK-733] | 21.7 | 12.2 | 12
6 | O=NN(CCCl)C(=O)NC1CCCCC1 [Lomustine] | 0 | 0 | 0
7 | COc1cc2c(Oc3ccc4[nH]c(C)cc4c3F)ncnc2cc1OCCCN1CCCC1 [Cediranib] | 6.1 | 5.1 | 4.3
8 | CN1CCN(CCOc2cc(OC3CCOCC3)c3c(Nc4c(Cl)ccc5c4OCO5)ncnc3c2)CC1 [Saracatinib] | 1.4 | 1.3 | 1.5
9 | O=C(c1ccc(F)c(F)c1Nc1ccc(I)cc1F)N1CC(O)([C@@H]2CCCCN2)C1 [Cobimetinib] | 13.3 |  | 7.7
10 | Cc1cc(C(C)Nc2ccccc2)c2nc(N3CCOCC3)cc(=O)n2c1 (stereo not drawn) [TGX-221] | 1.6 | 2.5 | 0.8
11 | CN(C)C(=O)c1ccc(S(=O)(=O)c2ccc(NC(=O)[C@@](C)(O)C(F)(F)F)c(Cl)c2)cc1 [AZD7545] | 0 | 2.4 | 0
12 | CNC(=O)c1ccccc1Nc1cc(Nc2ccc(N3CCOCC3)cc2OC)ncc1C(F)(F)F [VS-4718] | 4.8 | 3.8 | 4.1
13 | CN(C[C@@H]1COCCO1)S(=O)(=O)Nc1ccc2ccc3ncc(-c4cnn(C)c4)cc3c(=O)c2c1 [MK-2461] | 0.6 | 0 | 0.3
14 | CN(C)C(=N)NC(=N)N [Metformin] | 0 |  | 1
15 | CCC(C)(C)C(=O)O[C@H]1C[C@@H](C)C=C2C=C[C@H](C)[C@H](CC[C@@H]3C[C@@H](O)CC(=O)O3)[C@H]21 [Simvastatin] | 1.2 |  | 4.5
16 | CC(=O)Nc1cccc(-n2c(=O)n(C3CC3)c(=O)c3c(Nc4ccc(I)cc4F)n(C)c(=O)c(C)c32)c1 [Trametinib] | 19.3 | 12.7 | 8.1
17 | COc1cc2c(Nc3ccc(Cl)c(Cl)c3F)ncnc2cc1OC[C@@H]1C[C@@H]2CN(C)C[C@@H]2C1 [XL-647] | 2.1 | 3.1 | 2.4
18 | CCc1cc(Nc2nccc(-c3c(-c4ccc(OC)c(C(=O)Nc5c(F)cccc5F)c4)nc4ccccn34)n2)c(OC)cc1N1CCC(N2CCN(S(C)(=O)=O)CC2)CC1 | 0.2 | 2.1 | 0
19 | CC[C@H](Nc1ncnc2[nH]cnc12)c1nc2cccc(F)c2c(=O)n1-c1ccccc1 [Idelalisib] | 2.3 | 4.6 | 0.7

Row | Structure (SMILES) | drug sensitivity score [1] [DSS] | drug sensitivity score [2] [DSS] | drug sensitivity score [3] [DSS]
20 | CC(C)CC(=O)Nc1n[nH]c2c1CN(C(=O)C1CCN(C)CC1)C2(C)C | 6.1 | 5.8 | 10.7
21 | O=C(Nc1cc(Cl)cc2c1[nH]c1cnccc12)c1cccnc1 [PS-1145] | 0.4 | 0 | 1.8
22 | COc1cc(OC2CCN(C)CC2)ccc1Nc1ncc2c(n1)n(C1CCCC1)c(=O)n2C [AZ 3146] | 10.9 | 10.6 | 9.5
23 | Cn1ncnc1[C@H]1c2n[nH]c(=O)c3cc(F)cc(c23)N[C@@H]1c1ccc(F)cc1 [Talazoparib] | 5.8 | 0 | 2.5
24 | O=C(O)CC[C@H]1CC[C@@](c2cc(F)ccc2F)(S(=O)(=O)c2ccc(Cl)cc2)CC1 [MK-0752] | 0.7 | 0 | 0
25 | O=C(Nc1cccnc1)N1CCC(Cc2cccc(Oc3ccc(C(F)(F)F)cn3)c2)CC1 [PF-3845] | 0.1 | 2.4 | 0.3
26 | CCn1c(=O)c(-c2cc[nH]n2)cc2c(C)nc(N)nc21 [Voxtalisib] | 7.4 | 6.5 | 5.7
27 | Nc1ccccc1NC(=O)c1ccc(CNc2nccc(-c3cccnc3)n2)cc1 [Mocetinostat] | 10.2 | 6.1 | 7.8
28 | CC1(C)CCC(c2ccc(Cl)cc2)=C(CN2CCN(c3ccc(C(=O)NS(=O)(=O)c4ccc(N[C@H](CCN5CCOCC5)CSc5ccccc5)c(S(=O)(=O)C(F)(F)F)c4)cc3)CC2)C1 [Navitoclax] | 7.4 | 5.6 | 0
29 | COC(=O)c1ccc2c(c1)[nH]c1ncnc(NCCCN3CCCCC3)c12 [UM729] | 1.8 | 2.8 | 3.3
30 | COc1cc(OC)c(/C=C/S(=O)(=O)Cc2ccc(OC)c(NCC(=O)O)c2)c(OC)c1 [Rigosertib] | 15.1 | 18.2 | 16.4
31 | O=C(NOCC1CC1)c1ccc(F)c(F)c1Nc1ccc(I)cc1Cl | 16.4 | 7.4 | 10.5
32 | CO[C@@H](C(=O)N1Cc2[nH]nc(NC(=O)c3ccc(N4CCN(C)CC4)cc3)c2C1)c1ccccc1 [Danusertib] | 6.5 | 4.7 | 4.9
33 | CN(C)Cc1ccc(S(=O)(=O)n2ccc(/C=C/C(=O)NO)c2)cc1 [Resminostat] | 8 | 8.1 | 6.1
34 | Nc1nc(Cl)nc2c1ncn2[C@H]1C[C@H](O)[C@@H](CO)O1 [Cladribine] | 2.4 | 0 | 0.5
35 | Cc1ccc(F)c(NC(=O)Nc2ccc(-c3cccc4[nH]nc(N)c34)cc2)c1 [Linifanib] | 0 | 0 | 0
36 | COc1cc(CCc2cc(NC(=O)c3ccc(N4CC(C)NC(C)C4)cc3)n[nH]2)cc(OC)c1 (stereo not drawn) [AZD4547] | 2.9 | 0 | 1.6
37 | CCC1=C[C@@H]2CN(C1)Cc1c([nH]c3ccccc13)[C@@](C(=O)OC)(c1cc3c(cc1OC)N(C)[C@H]1[C@@](O)(C(=O)OC)[C@H](OC(C)=O)[C@]4(CC)C=CCN5CC[C@]31[C@@H]54)C2 [Vinorelbine] | 19.3 | 19.5 | 22.4
